Results published in paper PMC5082894 (PLoS ONE, 2016).

Key:
[1] = biological target: T1, MN gp120 binding to heparan sulfate (HS) (Human immunodeficiency virus type 1 group M subtype B, UniProt P05877); test: biochemical; design: species or system HIV-1
T1 construct: MN gp120 (50 μg/ml in 5 mM maleate buffer, pH 6); purchased Immunodiagnostics (Massachusetts, USA)
Description: (§1) For that purpose, CM4 sensorchips were activated with 50 μL of 0.2 M N-ethyl-N’-([…])-carbodiimide (EDC) and 0.05 M N-hydroxy-succimide (NHS) at 5 μL/min. Then soluble CD4 (10 μg/mL in 10 mM acetate buffer, pH 5), streptavidin (200 μg/mL in 10 mM acetate buffer, pH 4.2), mAb 17b (5 μg/mL in 10 mM acetate buffer, pH 5), MN gp120 (50 μg/ml in 5 mM maleate buffer, pH 6) or YU2 gp120 (50μg/mL in 10 mM acetate buffer, pH 4.8) were injected at 5 μL/min over one of the EDC/NHS activated flow cell until levels of 1200 (for sCD4), 700 (for mAb 17b), 3000 (for streptavidin), or 4500 (for gp120s) response units (RU) were achieved. HS (1 mM in phosphate-buffered saline) was biotinylated through its reducing end by reductive amination with 10 mM of biotin-LC-Hydrazine (Pierce) and captured on the streptavidin surface (20 μg/mL in 10 mM Hepes buffer pH 7.4 and 0.3 M NaCl) to a level of 60–80 RU as described. Surfaces were then blocked with 1M ethanolamine (pH 8.5) for 5 minutes.
(§2) CD4, mAb 17b and gp120 surfaces were regenerated by 1 min injection of 10 mM HCl and the HS surface was regenerated with a 1 min injection of 0.05% SDS followed by a 3 min injection of 2 M NaCl.

[2] = Cytotoxicity by MTT method (MAGI cells); type: cell-based; conditions: human, HeLa CD4/CCR5-LTR/β-gal cells (MAGI cells); MTT, mean of triplicate ± SD
Description: (§3) Briefly, target cells (HeLa CD4/CCR5-LTR/β-gal; 10^4/well) were plated in 96-well flat microtiter culture plates. […] The test drugs were added initially and viruses were immediately inoculated onto the cells. Forty-eight hours after viral exposure, all blue cells in each well were counted. The cytotoxicity of the compound was determined by the MTT method as previously described. All experiments were performed in triplicate and AZT was used as reference anti-HIV-1 molecule.

[3] = tested on: HeLa CD4/CCR5-LTR/β-gal cells; test: Cytotoxicity by MTT method (MAGI cells); type: cell-based; conditions: concentrations up to 100 μg/ml (115.7 μM)
Description: as §3

HIV-1 92HT599 (B-X4) = test: PBMC antiviral assay (RT activity), HIV-1 92HT599; type: cell-based; conditions: Human immunodeficiency virus 1, PBMC, 168 h; PHA-P-activated PBMCs, 125 TCID50, day 7, RT activity
Description: (§4) In order to confirm antiretroviral activity of the compounds, using a cell model closer to the pathophysiology, Peripheral Blood Mononuclear Cells (PBMCs) were separated from a buffy-coat from healthy HIV-, HCV-, HBV-seronegative blood donors by Ficoll-Hypaque density gradient centrifugation. The PBMCs were activated by incubation with 1 μg/ml phytohemagglutinin-P (PHA-P; Difco Laboratories) for three days in RPMI 1640 medium supplemented with 10% heat-inactivated fetal calf serum (FCS, +56 ◦C for 45 min), 2mM l-glutamine and a 1% antibiotic cocktail (penicillin, streptomycin, neomycin). After this mitogen activation, PBMCs were cultivated in the same culture medium supplemented with recombinant human interleukin-2 (rHuIL-2; 20 IU/mL) and treated and/or infected. […] All these viruses were amplified in vitro with PHA-P-activated blood mononuclear cells and 50% tissue culture infectious doses (TCID50) were calculated using Kärber’s formula [37], after limited-dilution titration. […] Viral replication was measured by quantifying reverse transcriptase (RT) activity in the cell culture supernatants using the Lenti RT Activity Kit (Cavidi) and AZT was used as reference anti-HIV-1 molecule. EC50 were then calculated and expressed in μM.

Water solubility = type: physicochemical
[4] = tested on: PD-1 expression on CD4+ and CD8+ T cells; test: Flow cytometry of PD-1 on T cells of HIV-1-infected PBMCs; type: cell-based, human; conditions: day 9 post infection
From the text: (§5) PBMCs (1 x 10^6/ml) were infected with 100 TCID50 of various HIV-1 strains (92UG037: primary R5-tropic strain; YU2B and BaL: R5-tropic lab strains, 93BR020: dual-tropic primary isolate; NL4-3: X4-tropic lab strain) and simultaneously treated with a range of concentrations of IND02-trimer in 24-well plates (Greiner) in duplicates. Cells were washed, fixed (4% paraformaldehyde) and stained on several days post infection (1-4-9-13-19) using the following mAbs against PD-1-Brilliant Violet 421, CD3-FITC, Tim-3-PE, CD4-PE-Cy7 (all from Biolegend) and CD8-APC (Miltenyi). Multicolor flow cytometric analyses were performed on a FACS Verse (BD Biosciences).
(§6) Fig 5 Reduction of Tim-3 (left) and PD1 (right) expression on HIV-1 and IND02-trimer-treated CD8^+ (A) and CD4^+ (B) T cells. Stimulated PBMCs were simultaneously incubated with 0.4 to 40 μg/ml (0.46–46.3 μM) IND02-trimer and HIV-1 (92UG037, BaL, YU2b, 93BR020 or NL4-3). Up-regulation of Tim-3 (left) and PD-1 (right) on CD8^+ (A) and CD4^+ (B) T cells was impeded by the IND02-trimer, as shown by multicolour FACS analyses of live T cells on day 9 post co-treatment. Experiments were repeated in 4–5 independent experiments with cells from different donors and statistical differences were analyzed by the GraphPad prism software using the unpaired student’s t-test (2-tailed).

HIV-1 98IN017 (C-X4) = test: PBMC antiviral assay (RT activity), HIV-1 98IN017; type: cell-based; conditions: Human immunodeficiency virus 1, PBMC, 168 h; PHA-P-activated PBMCs, 125 TCID50, day 7, RT activity
Description: as §4

[5] = tested on: Tim-3 expression on CD4+ and CD8+ T cells; test: Flow cytometry of Tim-3 on T cells of HIV-1-infected PBMCs; type: cell-based, human; conditions: day 9 post infection
From the text: as §5, §6

[6] = tested on: PD-1 expression on CD4+ and CD8+ T cells; test: Flow cytometry of PD-1 on T cells without HIV-1 (IND02-trimer alone); type: cell-based, human; conditions: no HIV-1, day 9 post exposure
[7] = tested on: HIV-1 reference strains and clinical isolates; test: PBMC antiviral assay, whole panel of strains; type: cell-based
Description: The PBMCs were activated by incubation with 1 μg/ml phytohemagglutinin-P (PHA-P; Difco Laboratories) for three days in RPMI 1640 medium supplemented with 10% heat-inactivated fetal calf serum (FCS, +56 ◦C for 45 min), 2mM l-glutamine and a 1% antibiotic cocktail (penicillin, streptomycin, neomycin). After this mitogen activation, PBMCs were cultivated in the same culture medium supplemented with recombinant human interleukin-2 (rHuIL-2; 20 IU/mL) and treated and/or infected. PBMCs were infected either with the reference lymphotropic (-X4) HIV-1 LAI strain [35], the reference macrophage-tropic (-R5) HIV-1 BaL strain [36] or with 4 different clinical isolates (subtype A, B or C). All these viruses were amplified in vitro with PHA-P-activated blood mononuclear cells and 50% tissue culture infectious doses (TCID50) were calculated using Kärber’s formula [37], after limited-dilution titration. […] Cell supernatants were collected at day 7 post-infection and stored at -20°C. Viral replication was measured by quantifying reverse transcriptase (RT) activity in the cell culture supernatants using the Lenti RT Activity Kit (Cavidi) and AZT was used as reference anti-HIV-1 molecule. EC50 were then calculated and expressed in μM. […]

Cytotoxicity in PBMCs = type: cell-based, human; conditions: human, PHA-P-activated peripheral blood mononuclear cells (PBMCs)
HIV-1 92UG029 (A-X4) = test: PBMC antiviral assay (RT activity), HIV-1 92UG029; type: cell-based; conditions: Human immunodeficiency virus 1, PBMC, 168 h; PHA-P-activated PBMCs, 125 TCID50, day 7, RT activity
Description: as §4

HIV-1 Ba-L (B-R5) = test: PBMC antiviral assay (RT activity), HIV-1 Ba-L; type: cell-based; conditions: Human immunodeficiency virus 1, BAL, PBMC, 168 h; PHA-P-activated PBMCs, 125 TCID50, day 7, RT activity
Description: as §4

HIV-1 NL4-3 = test: MAGI assay, HIV-1 NL4-3; type: cell-based; conditions: Human immunodeficiency virus 1, NL43, MAGI cells
Description: as §3

MN gp120-CD4 interaction = biological target: T2, MN gp120-CD4 interaction (Human immunodeficiency virus type 1 group M subtype B, UniProt P05877); type: binding, HIV-1; conditions: SPR, immobilized CD4, data not shown
T2 construct: HIV-1 gp120 was injected over the immobilized CD4; purchased Immunodiagnostics (Massachusetts, USA)
Description: as §1, with “minutes. […]” for “minutes.”
(§7) The specific binding responses in resonance unit (RU) for MN- (A) and YU2- (B) gp120 were recorded as a function of time (s). […] The specific binding responses in resonance unit (RU) for MN- (C, E) and YU2- (D, F) gp120 were recorded as a function of time (s), and after each injection, the surface was regenerated by a short pulse of 10 mM HCl.

[8] = biological target: T3, YU2 gp120-CD4 interaction (Human immunodeficiency virus type 1 group M subtype B, UniProt P35961); type: binding, HIV-1; conditions: SPR, immobilized CD4, data not shown
T3 construct: HIV-1 gp120 was injected over the immobilized CD4; purchased Immunodiagnostics (Massachusetts, USA)
Description: as §1, with “minutes. […]” for “minutes.”
as §7

[9] = biological target: T4, YU2 gp120/CD4 complex binding to mAb 17b (co-receptor binding site) (Human immunodeficiency virus type 1 group M subtype B, UniProt P35961); design: species or system HIV-1; conditions: Fig 4F
T4 construct: purchased Immunodiagnostics (Massachusetts, USA)
Description: as §1, with “minutes. […]” for “minutes.”
as §7, with “HCl. […]” for “HCl.”

[10] = biological target: T5, MN gp120/CD4 complex binding to mAb 17b (co-receptor binding site) (Human immunodeficiency virus type 1 group M subtype B, UniProt P05877); design: species or system HIV-1; conditions: Fig 4E
T5 construct: purchased Immunodiagnostics (Massachusetts, USA)
Description: as §1, with “minutes. […]” for “minutes.”
as §7, with “HCl. […]” for “HCl.”

HIV-1 LAI = test: MAGI assay, HIV-1 LAI; type: cell-based; conditions: Human immunodeficiency virus 1, MAGI cells
Description: as §3

YU2 gp120 (R5-tropic) = biological target: T6, YU2 gp120 (R5-tropic) (Human immunodeficiency virus type 1 group M subtype B, UniProt P35961); type: binding, HIV-1; conditions: SPR, 0 to 25 μM injected
T6 construct: YU2 gp120 (50μg/mL in 10 mM acetate buffer, pH 4.8); purchased Immunodiagnostics (Massachusetts, USA)
Description: as §1, §2
(§8) In order to evaluate the potential anti-viral properties of cinnamon, we first underwent a series of biochemical binding experiments using surface plasmon resonance. […]

MN gp120 (X4-tropic) = biological target: T7, MN gp120 (X4-tropic) (Human immunodeficiency virus type 1 group M subtype B, UniProt P05877); type: binding, HIV-1; conditions: SPR, 0 to 25 μM injected
T7 construct: MN gp120 (50 μg/ml in 5 mM maleate buffer, pH 6); purchased Immunodiagnostics (Massachusetts, USA)
Description: as §1, §2, §8

HIV-1 LAI (B-X4) = test: PBMC antiviral assay (RT activity), HIV-1 LAI; type: cell-based; conditions: Human immunodeficiency virus 1, PBMC, 168 h; PHA-P-activated PBMCs, 125 TCID50, day 7, RT activity
Description: as §4

[11] = Stability studies in formulations; type: physicochemical; conditions: in various formulations

Oc1cc(O)c2c(c1)O[C@@]1(c3ccc(O)c(O)c3)Oc3cc(O)c4c(c3[C@@H]2[C@H]1O)O[C@H](c1ccc(O)c(O)c1)[C@H](O)[C@H]4c1c(O)cc(O)c2c1O[C@H](c1ccc(O)c(O)c1)[C@H](O)C2 [IND02-trimer, cinnamtannin B1]
IC50 [1]: 7.5 ± 3.5 µM
CC50 [2]: 96 ± 4 µM
cytotoxicity [3]: did not show cytotoxicity
EC50 (HIV-1 92HT599 (B-X4)): 1.2 ± 1 µM
water solubility (Water solubility): water-soluble
PD-1 expression on CD8+ T cells versus infected control cells ([4]; HIV-1-exposed PBMCs, all concentrations tested (0.4 to 40 μg/ml)): significantly reduced
PD-1 expression on CD4+ T cells versus infected control cells ([4]; HIV-1-infected PBMCs): decreased
EC50 (HIV-1 98IN017 (C-X4)): 0.8 µM
Tim-3 expression on CD8+ T cells versus infected control cells ([5]; HIV-1-infected PBMC cultures, 0.4 to 40 μg/ml (0.46–46.3 μM)): significantly lower expression
Tim-3 expression on CD4+ T cells versus infected control cells ([5]; HIV-1-infected PBMCs): decreased
% CD4+/PD-1+ ([6]; 0.4 μg/ml / 0.46 μM): 33.8%
% CD8+/PD-1 ([6]; 0.4 μg/ml / 0.46 μM): 23.7%
% CD4+/PD-1+ ([6]; 2 μg/ml / 2.31 μM): 35.0%
% CD8+/PD-1 ([6]; 2 μg/ml / 2.31 μM): 23.5%
% CD4+/PD-1+ ([6]; 4 μg/ml / 4.6 μM): 32.1%
% CD8+/PD-1 ([6]; 4 μg/ml / 4.6 μM): 23.7%
% CD4+/PD-1+ ([6]; 20 μg/ml / 23.1 μM): 32.0%
% CD8+/PD-1 ([6]; 20 μg/ml / 23.1 μM): 23.9%
% CD4+/PD-1+ ([6]; 40 μg/ml / 46 μM): 32.7%
% CD8+/PD-1 ([6]; 40 μg/ml / 46 μM): 23.5%
EC50 ([7]; Human immunodeficiency virus 1, PBMC, read-out: EC50 over the panel of strains): 0.8 to 7 µM
ED50 against a range of clinical isolates from different clades ([7]; PBMCs): 1 to 7 µM
CC50 (Cytotoxicity in PBMCs): 23 ± 2 µM
EC50 (HIV-1 92UG029 (A-X4)): 2.3 µM
EC50 (HIV-1 Ba-L (B-R5)): 6.9 ± 2 µM
EC50 (HIV-1 NL4-3): 2.8 µg/mL
EC50 (HIV-1 NL4-3; 48 h, mean of triplicate ± SD): 3.2 ± 1.4 µM
inhibition of MN envelope binding to CD4 (MN gp120-CD4 interaction): did not show a significant inhibition
inhibition of YU2 envelope binding to CD4 [8]: did not show a significant inhibition
concentration from which inhibition of YU2 gp120/CD4 binding to mAb 17b was observed [9]: ≥ 50 µM
concentration from which inhibition of MN gp120/CD4 binding to mAb 17b was observed [10]: ≥ 50 µM
EC50 (HIV-1 LAI): 3.4 µg/mL
EC50 (HIV-1 LAI; 48 h, mean of triplicate ± SD): 3.9 ± 1.6 µM
binding to immobilized YU2 gp120 (YU2 gp120 (R5-tropic)): gave binding signals
binding to immobilized MN gp120 (MN gp120 (X4-tropic)): gave binding signals
EC50 (HIV-1 LAI (B-X4)): 4.6 ± 3 µM
time over which the compound is stable [11]: ≥ 6 months
